In US20070218460A1, “Method of Estimating Toxicity of Drug” (TAKEDA PHARMACEUTICAL COMPANY LIMITED, priority 2003, published 2007):

What was measured:
[1] = system: HepG2 cells; test: Electron-microscopic examination of PLsis induction potential (myelin-like structure)
From the text: Using 30 kinds of the following commercially available drugs as test compounds, the level of PLsis induction potential was examined with the emergence of an intracellular myelin-like structure or a structure having a high electron density, which is an early image thereof, as an index by electronmicroscopic observation.
HepG2 cells (purchased from ATCC) were exposed to the test compound by a conventional method. HepG2 cells used were of the cell growth phase. The attached HepG2 cells were washed twice with. Dulbecco's phosphate buffered saline (calcium and magnesium salt free; PBS(−))(Dainippon Pharmaceutical Co., Ltd.) containing 0.05 w/v % EDTA, detached with a cell dissociation solution of 0.25 vol % trypsin-1 mmol/L EDTA (Gibco BRL) diluted 2-fold with PBS(−), centrifuged to remove the supernatant, and adjusted to a concentration of 2×10^5 cells/250 μL with a culture medium [Dulbecco's modified Eagle medium (DMEM)(Gibco BRL) supplemented with 50 U/mL penicillin (Gibco BRL)-[…] streptomycin (Gibco BRL) and 5 vol % FBS (Bio whittaker)]. DMSO alone or a culture medium containing the above-mentioned test compound in DMSO solution was dispensed to a well by 250 μL, the above-mentioned cell suspension (250 μL) was added, and cultured in a CO2 incubator (7100; Napco) under an atmosphere of 5% CO2—95% air at 37° C.
After culture for 72 hr, the culture medium was removed, and the cells were fixed with 1 w/v % glutaraldehyde solution. After fixing with 2 w/v % osmic acid for 2 hr by a conventional method and dehydrating with an alcohol series, the cells were embedded in a resin (Quetol 812). Ultrathin slices were prepared and, after electron staining, observed with an electron microscope (H-300; Hitachi) and photographed in 3 or more pictures per each sample (magnification ×5000). The processing after post-fixation was performed by Applied Medical Research.

[2] = system: HepG2 cells; test: Highest concentration at which cells were viable after 72 hr exposure; assay type: cell-based, human
[3] = system: asah1; test: Real-time quantitative PCR of PLsis marker gene expression; assay type: cell-based, human; conditions: HepG2 cells, 24 hr exposure, relative value, control group = 1.0, GAPDH internal standard, n=3
Description: (§1) Using RNeasy Mini Kit (QIAGEN), total RNA was purified from the cells, and cDNA was synthesized in a 100 μL system using TaqMan Reverse Transcription Reagents (PE Applied Biosystems).
(§2) As the primer for glyceraldehyde-3-phosphoric acid dehydrogenase (GAPDH) and VIC labeled probe, those attached to TaqMan GAPDH Control Reagents (PE Applied Biosystems) were used.
(§3) Using 100 μL of the reaction mixture containing 5 μL of cDNA (1×TaqMan Universal PCR Master Mix (PE Applied Biosystems), 200 nM forward primer, 200 nM reverse primer and 200 nM TaqMan probe), 40 cycles of (1 cycle=95° C., 15 sec; 60° C., 1 min) PCR were performed. PCR and fluorescence detection were performed using ABI PRISM Sequence Detector 7000 (PE Applied Biosystems). As the internal standard, GAPDH was used to amend the measurement values. For the determination of significant difference, t-test was used (n=3).
(§4) For each test compound, the expression variation rate of 12 genes each relative to the control group was determined.

[4] = system: depp; test: as above; assay type: cell-based, human; conditions: HepG2 cells, 24 hr exposure, relative value, control group = 1.0, GAPDH internal standard, n=3
Description: as §1, §2, §3, §4

[5] = system: fabp1; test: as above; assay type: cell-based, human; conditions: HepG2 cells, 24 hr exposure, relative value, control group = 1.0, GAPDH internal standard, n=3
Description: as §1, §2, §3, §4

[6] = system: flj22362; test: as above; assay type: cell-based, human; conditions: HepG2 cells, 24 hr exposure, relative value, control group = 1.0, GAPDH internal standard, n=3
Description: as §1, §2, §3, §4

[7] = system: hpn; test: as above; assay type: cell-based, human; conditions: HepG2 cells, 24 hr exposure, relative value, control group = 1.0, GAPDH internal standard, n=3
Description: as §1, §2, §3, §4

[8] = system: kiaa1001; test: as above; assay type: cell-based, human; conditions: HepG2 cells, 24 hr exposure, relative value, control group = 1.0, GAPDH internal standard, n=3
Description: as §1, §2, §3, §4

[9] = system: lss; test: as above; assay type: cell-based, human; conditions: HepG2 cells, 24 hr exposure, relative value, control group = 1.0, GAPDH internal standard, n=3
Description: as §1, §2, §3, §4

[10] = system: mgc4171; test: as above; assay type: cell-based, human; conditions: HepG2 cells, 24 hr exposure, relative value, control group = 1.0, GAPDH internal standard, n=3
Description: as §1, §2, §3, §4

[11] = system: nr0b2; test: as above; assay type: cell-based, human; conditions: HepG2 cells, 24 hr exposure, relative value, control group = 1.0, GAPDH internal standard, n=3
Description: as §1, §2, §3, §4

[12] = system: serpina3; test: as above; assay type: cell-based, human; conditions: HepG2 cells, 24 hr exposure, relative value, control group = 1.0, GAPDH internal standard, n=3
Description: as §1, §2, §3, §4

[13] = system: slc2a3; test: as above; assay type: cell-based, human; conditions: HepG2 cells, 24 hr exposure, relative value, control group = 1.0, GAPDH internal standard, n=3
Description: as §1, §2, §3, §4

[14] = system: tagln; test: as above; assay type: cell-based, human; conditions: HepG2 cells, 24 hr exposure, relative value, control group = 1.0, GAPDH internal standard, n=3
Description: as §1, §2, §3, §4

SMILES	frequency of appearance of myelin-like structure [1]	addition concentration (highest concentration at which cells survived after 72 hr of culture) [2] [µmol/L]	expression variation rate asah1 [3]	expression variation rate depp [4]	expression variation rate fabp1 [5]	expression variation rate flj22362 [6]	expression variation rate hpn [7]	expression variation rate kiaa1001 [8]	expression variation rate lss [9]	expression variation rate mgc4171 [10]	expression variation rate nr0b2 [11]	expression variation rate serpina3 [12]	expression variation rate slc2a3 [13]	expression variation rate tagln [14]
CC(=O)N1CCN(c2ccc(OCC3COC(Cn4ccnc4)(c4ccc(Cl)cc4Cl)O3)cc2)CC1 (stereo not shown) [ketoconazole]	+	8.3	1.47	2.29	5.30	1.95	2.71	2.24	4.33	1.53	2.36	2.37	0.48	0.71
C[C@H]1COc2c(N3CCN(C)CC3)c(F)cc3c(=O)c(C(=O)O)cn1c23 [levofloxacin]	−	25	1.10	0.83	0.88	0.83	0.83	0.70	0.75	0.79	0.79	0.92	1.07	0.90
CC1COc2c(N3CCN(C)CC3)c(F)cc3c(=O)c(C(=O)O)cn1c23 (stereo not shown) [ofloxacin]	−	25	1.17	0.79	0.75	0.68	0.72	0.86	0.78	0.77	0.81	0.82	0.94	0.74
C1CCC(C(CC2CCCCN2)C2CCCCC2)CC1 (stereo not shown) [perhexiline]	++	8.3	3.12	2.55	2.49	3.42	2.22	1.98	3.10	1.93	2.09	2.50	0.22	0.26
CCN(CC)CCNC(=O)c1ccc(N)cc1 [procainamide]	−	25	0.86	0.98	1.00	0.73	1.08	1.78	0.90	1.08	0.74	0.96	0.88	0.85
CN[C@H]1CC[C@@H](c2ccc(Cl)c(Cl)c2)c2ccccc21 [sertraline]	++	8.3	3.08	4.44	4.14	3.49	3.07	2.38	3.91	1.94	1.79	2.69	0.14	0.37
CC(C)NCC(O)c1ccc(NS(C)(=O)=O)cc1 (stereo not shown) [sotalol]	−	25	1.39	0.80	0.98	0.85	0.79	0.84	0.88	0.72	0.63	0.78	1.53	0.80
Cc1cc(NS(=O)(=O)c2ccc(N)cc2)no1 [sulfamethoxazole]	−	25	1.26	0.70	0.85	0.87	0.89	0.84	0.82	0.78	0.82	0.98	1.11	0.99
